The record followed here is ChEMBL document CHEMBL3507680, “University of Dundee, Gates Library screen for HepG2 cell viability”.

This data set is described as follows: Human HepG2 cell viability assay in 384 well format. Format: toxicity, cell-based. Further details: dose 125 nL, time 70.5 hour; cytotoxicity at 70.5 h: concentration not given beside the values. The following applies: HepG2 cells, read-out: Inhibition.

`Cc1ccc(C(=O)N2CCCC(CNS(C)(=O)=O)C2)o1` (configuration not stated): the cytotoxicity at 70.5 h is -7.3%.
In the case of `CCc1ccc(C(=O)N2CCCC(CNS(C)(=O)=O)C2)o1` (configuration not stated), the cytotoxicity at 70.5 h is -10.7%.
For the compound `CC(Cn1cccn1)NC(=O)N1CCN(Cc2ccncc2)CC1` (configuration not stated), the cytotoxicity at 70.5 h is -5.78%.
Under `CCOc1ncccc1CNC(=O)c1cc(C)on1` stands -8.59%.
As for `CC(=O)NCCNC(=O)c1cnc(-c2ccc(C)cc2C)s1`, the figure is -6.99%; as for `O=C(c1cc2cc(F)ccc2[nH]1)N1CCC(Nc2ccc(F)cc2)CC1`, -4.25%; as for `CCNC(=O)C(C)NC(=O)c1cnc(-c2ccc(C)cc2C)s1` (configuration not stated), 1.57%.
As for `O=C(Cc1c[nH]c2ccccc12)N1CCC(Nc2cccnc2)CC1`, the figure is -0.82%; as for `CCc1ccc(C(=O)N2CCN(c3nc(C)cc(OC)n3)CC2)o1`, 4.76%; as for `CNC(=O)c1ccc(CNC(=O)NCCN(C)C2CCCC2)cc1`, -1.36%.
Regarding `O=C(c1cc2ccccc2[nH]1)N1CCC(Nc2cccnn2)CC1`, the cytotoxicity at 70.5 h was -6.88%.
As for `O=C(c1cc2c(F)cccc2[nH]1)N1CCC(Nc2cccnn2)CC1`, the figure is 0.884%; as for `CN(c1cccnn1)C1CCN(C(=O)Cc2c[nH]c3ccccc23)CC1`, -4.23%; as for `CN1CCOC(CNCc2csc(C3CCCCC3)n2)C1` (configuration not stated), -13.3%.
As for `CC(O)(CN1CCC(O)CC1)c1cccc(C(F)(F)F)c1` (configuration not stated), the figure is -14.5%.
Under `Cc1nn(C)c(N(C)C)c1CNC(C)COc1ccc(F)cc1F` (configuration not stated) stands -8.01%.
In the case of `Cn1cnc2c1CCN(Cc1csc(C3CCCC3)n1)C2`, the cytotoxicity at 70.5 h is -9.44%.
As for `O=C(CCn1cncn1)N1CCCC1c1noc(C2CC2)n1` (configuration not stated), the figure is -7.06%.
Under `COCCOc1ncccc1C(=O)N1CCCC(n2ccnc2C)C1` (configuration not stated) stands -13.5%; under `O=C(NCCn1ccnc1)N1CCN(Cc2cccnc2)CC1`, -5.29%.
As for `CCCC(=O)NC(C)c1nnc2n1CCC2` (configuration not stated), the figure is -15.3%; as for `CCOc1ncccc1CNC(=O)Nc1ccccc1`, 16.2%.
As for `CCOc1ncccc1CNC(=O)Nc1ccc(OC)c(OC)c1`, the cytotoxicity at 70.5 h was -5.39%.
Turning to `CN(C)c1ncccc1CNS(=O)(=O)c1cc(F)cc(F)c1`, the cytotoxicity at 70.5 h was -6.43%.
In the case of `Cn1ccc(C(=O)NCc2ccccc2CN2CCCC2)cc1=O`, the cytotoxicity at 70.5 h worked out at 16%.
As for `CN(C)c1ncccc1CNS(=O)(=O)c1cc(F)ccc1F`, the figure is -11.5%; as for `O=C(NCCn1ccnc1)N1CCCN(Cc2cccs2)CC1`, -9.01%; as for `Cn1ccc(C(=O)NCc2ccccc2CN2CCCCC2)cc1=O`, -7.11%.
Under `O=C(NCCn1ccnc1)N1CCN(Cc2ccsc2)CC1` stands 9.21%.
As for `CCOc1cccc(C(C)NCc2c(C)nn(C)c2N(C)C)c1` (configuration not stated), the cytotoxicity at 70.5 h was -8.02%.
As for `Fc1cccc(-n2ccc(CN3CCCC3Cn3cccn3)n2)c1` (configuration not stated), the figure is -14.3%; as for `Cc1nnc(NC(=O)CN2CCc3nn(C)c(=O)cc3C2)s1`, 10.8%.
Under `CCc1n[nH]c(C2CN(C(=O)c3cnc(C)cn3)CCO2)n1` (configuration not stated) stands -10.6%.
As for `Cc1nc(CN(C)C2CCN(CCc3ccccn3)C2)no1` (configuration not stated), the figure is 24.5%; as for `Cc1cnn(CC2CCCN2CC(=O)Nc2cc(C(C)C)no2)c1` (configuration not stated), -7.84%; as for `CN1CCC/C1=N\S(=O)(=O)c1ccc(NC(=O)c2ccco2)cc1`, 11.9%.
With `CN1CCC/C1=N\S(=O)(=O)c1ccc(NC(=O)c2ccc(Cl)s2)cc1`, the cytotoxicity at 70.5 h is -18.3%.
Under `CCn1cc(NC(=O)NCc2ccc3c(c2)OCO3)cn1` stands -1.53%; under `CCn1cc(NC(=O)NCCc2ccc3c(c2)OCCO3)cn1`, -6.54%; under `CCN(CC)C(=O)c1ccc(-n2ncc(C#N)c2N)cc1`, 12.9%.
As for `Cc1cc(N2CCC(C(=O)NC3CC3)CC2)nc(-c2ccncc2)n1`, the figure is -7.6%.
As to `CN(C)c1ccc(C(=O)N2CCN(Cc3cscn3)CC2)cn1`, the cytotoxicity at 70.5 h is -6.24%.
As for `CC(=O)NCC1CCN(c2cc(C)nc(-c3ccncc3)n2)CC1`, the figure is -10.9%; as for `COCCc1noc(CN2CCN(CC(O)c3ccccc3)CC2)n1` (configuration not stated), -6.23%; as for `CCCc1nc(CN2CCN(CC(O)c3ccccc3)CC2)no1` (configuration not stated), -0.214%.
In the case of `Cn1cc(C(=O)NC2CCN(C(=O)NCC3CCSCC3)CC2)cn1`, the cytotoxicity at 70.5 h was -3.27%.
Under `O=C(CCc1ccc(Br)cc1F)NS(=O)(=O)c1ccc2c(c1)OCCO2` stands -3.13%; under `Cc1cc(CN(Cc2cccs2)CC2CCCO2)no1` (configuration not stated), -0.996%; under `CCCc1n[nH]c(C2CN(CCCOc3ccccc3)CCO2)n1` (configuration not stated), -6.69%.
As for `COCc1nc(C(=O)N2CCCC2c2c(C)nn(C)c2C)cs1` (configuration not stated), the figure is -6.67%; as for `Cc1cc(C)n(CC2CCCN2C(=O)c2ccc3c(c2)OCO3)n1` (configuration not stated), 6.92%; as for `COc1ccc(OCCNCCn2cccn2)cc1`, 3.51%.
Consider `O=C(Cc1csc(-c2ccco2)n1)N1CCN(CCO)CC1`, for which the cytotoxicity at 70.5 h came to 5.35%.
Under `Cc1cc(C)n(C2CCCN(C(=O)CCNS(C)(=O)=O)C2)n1` (configuration not stated) stands 14.9%; under `Cc1ccc(NC2CCN(C(=O)COc3cccnc3)CC2)nn1`, 22%; under `CCc1nc(CN2CCN(C(=O)CCc3ccccc3)CC2)cs1`, 3%.
As for `c1cc(CNCC2CNc3ccnn3C2)cc(N2CCCCC2)n1` (configuration not stated), the figure is 25.3%.
Under `c1ccc(Oc2cc(CNCC3CNc4ccnn4C3)ccn2)cc1` (configuration not stated) stands -2.96%; under `CCOc1cc(/C=C/c2ncc(C(=O)O)s2)cc(Cl)c1OC`, 9.41%.
Take `CCOc1ncccc1C(=O)NCCN(CC)C1CC1`: the cytotoxicity at 70.5 h is 0.543%.
As for `O=C(NCc1cccc2cccnc12)N1CCC(n2cncn2)CC1`, the figure is -1.7%; as for `CCc1nccn1C1CCCN(C(=O)CCCNc2ncccn2)C1` (configuration not stated), -1.35%; as for `O=C(c1ccn[nH]1)N1CCCC(n2cncn2)C1` (configuration not stated), 5.61%.
As for `COCCCNC(=O)CN1CCCC1c1c(C)nn(C)c1Cl` (configuration not stated), the figure is 27.1%.
As for `O=C(c1cnc(-c2ccco2)s1)N1CCCC1Cn1cccn1` (configuration not stated), the figure is 1.15%.
Consider `CC1CCN(S(=O)(=O)NCCCn2cncn2)CC1`, for which the cytotoxicity at 70.5 h is -0.69%.
Under `Cc1nc(C)n(CC2CCCN(CCCOc3ccccc3)C2)n1` (configuration not stated) stands -0.0538%; under `Cn1cc(C(=O)CC2CCCN2C(=O)c2cncc3ccccc23)cn1` (configuration not stated), 3.04%; under `Cc1nc(-c2ccco2)ccc1C(=O)N1CCCC1Cn1cccn1` (configuration not stated), 7.82%.
For `COc1ccc(CCN2CCCC(Cn3nc(C)nc3C)C2)cc1` (configuration not stated), the cytotoxicity at 70.5 h is -2.31%.
Regarding `CC(O)CN1CCN(C(=O)c2ccc(Cn3cccc3)cc2)CC1` (configuration not stated), the cytotoxicity at 70.5 h was -2.78%.
`CCn1cnnc1CNC(=O)N(C)Cc1ccc2c(c1)OCCO2`: the cytotoxicity at 70.5 h was found to be 6.83%.
Regarding `Cc1nc(C)n(CC2CCCN(Cc3nc(C)c(C)o3)C2)n1` (configuration not stated), the cytotoxicity at 70.5 h stood at 13.2%.
As for `CCC1CN(CCC(=O)N(C)C)CCN1CCOC` (configuration not stated), the figure is -8.66%; as for `CCC1CN(CC(=O)N2CCC2)CCN1CCOC` (configuration not stated), -2.85%; as for `Cc1nc(C)n(CC2CCCN(c3ncnc4ccsc34)C2)n1` (configuration not stated), 26.2%.
Under `CCn1cnnc1CNC(=O)CCC(=O)c1ccc2c(c1)OCCO2` stands -9.39%; under `Cc1ccc(C(=O)N2CCCC(NC(=O)C(C)C)C2)c(O)c1` (configuration not stated), -3.17%.
As for `Cc1ccc(C(=O)N2CCCC(C(=O)N3CCCCC3)C2)c(O)c1` (configuration not stated), the figure is 13.3%.
Take `CC(=O)NC1CCCN(C(=O)c2ccc(Br)cc2O)C1` (configuration not stated): the cytotoxicity at 70.5 h is -8.57%.
With `COCCN(CCc1ccccc1)Cc1nc2c(cnn2C)c(=O)[nH]1`, the cytotoxicity at 70.5 h was -3.4%.
As for `CCN(CCc1ccccc1)Cn1nc(C)c2c(C)onc2c1=O`, the figure is -1.87%; as for `O=C(c1cnc(-c2cccs2)s1)N1CCCC(n2cccn2)C1` (configuration not stated), -4.26%.
Take `CCN1CCN(C(=O)c2cnn(-c3ccccc3Cl)c2)CC1`: the cytotoxicity at 70.5 h is -8.2%.
`Cc1cccc(-c2[nH]ncc2CNCC2CCN(CC(C)O)CC2)c1` (configuration not stated): the cytotoxicity at 70.5 h is -4.28%.
Under `Cc1nc(CNC(=O)NCCc2ccc(N(C)C)cc2)cs1` stands -0.758%.
Under `c1csc(-c2nc(CN3CCOC(Cn4cccn4)C3)co2)c1` (configuration not stated) stands -8.17%; under `O=C(c1ccccc1N1CCOCC1)N1CCCC(n2cccn2)C1` (configuration not stated), 1.3%.
Under `Cc1cnn(CCC(=O)N2CCC(Nc3cccnn3)CC2)c1` stands 18.3%.
On to `CCc1nccn1C1CCCN(C(=O)c2cn3cccnc3n2)C1` (configuration not stated), for which the cytotoxicity at 70.5 h is -11.4%.
For `Cc1nc(CN2CCOC(CNc3cccnn3)C2)cs1` (configuration not stated), the cytotoxicity at 70.5 h came out at 2.31%.
Under `CCc1ccc(C(=O)O)cc1S(=O)(=O)Nc1ccc(F)c(C#N)c1` stands 6.85%; under `CCOc1cccc2c1OCC(C(=O)NS(=O)(=O)c1ccc(C)s1)=C2`, -4.35%.
As for `CC(C)c1nccn1C1CCCN(C(=O)c2cccc3c2OCO3)C1` (configuration not stated), the figure is 8.22%; as for `O=C(Cc1ccc2c(c1)OCCO2)NCCc1nnc2n1CCC2`, 12.2%.
Under `O=C(NCCN1CCCCCC1=O)c1ccn(-c2ccc(F)cc2)n1` stands -6.58%; under `CCOc1ccc(S(=O)(=O)NC(=O)CCC2CCCO2)cc1` (configuration not stated), -10.5%.
As to `Cc1csc(N2CCN(C(=O)CCNc3ncccn3)CC2)n1`, the cytotoxicity at 70.5 h is -11.3%.
As for `Cc1csc(N2CCN(C(=O)Cc3ccc(C)s3)CC2)n1`, the figure is 3.83%; as for `Cc1nc(-c2ccccc2)n(CC(=O)NCC(C)C)n1`, -3.55%; as for `Cn1ncc2c1CCCC2NCc1cccc(C(F)(F)F)c1` (configuration not stated), -5.81%.
As for `Cc1noc(C(C)C)c1C(=O)NCCCN1CCNCC1`, the figure is -7.14%.
